One assay deals with T1, hα2A receptor (Homo sapiens, UniProt P08913).
T1 construct: expressed in transfected cells
T1 sequence (P08913 1-465): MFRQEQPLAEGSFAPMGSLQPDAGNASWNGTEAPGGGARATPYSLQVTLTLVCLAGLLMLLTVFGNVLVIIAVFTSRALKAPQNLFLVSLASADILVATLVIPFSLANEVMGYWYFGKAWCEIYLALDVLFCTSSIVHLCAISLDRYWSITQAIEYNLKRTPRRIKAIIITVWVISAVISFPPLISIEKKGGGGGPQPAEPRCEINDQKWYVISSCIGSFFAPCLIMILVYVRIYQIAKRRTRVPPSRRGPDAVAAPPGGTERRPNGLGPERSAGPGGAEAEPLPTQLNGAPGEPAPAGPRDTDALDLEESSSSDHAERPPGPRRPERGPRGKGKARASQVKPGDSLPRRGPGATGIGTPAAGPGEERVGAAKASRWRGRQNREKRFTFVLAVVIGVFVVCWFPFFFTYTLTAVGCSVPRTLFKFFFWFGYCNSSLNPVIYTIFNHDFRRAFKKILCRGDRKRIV
Description: Radioligand binding experiment for hα2A receptor ([3H]-raulwolscine, CHO cell membranes). Conditions: [3H]raulwolscine 1 nM, membranes of CHO cells transfected with human α2A receptor; read-out: h-α2A pIC50 (converted).

In the next assay the target is T2, hα2C receptor (Homo sapiens, UniProt P18825).
T2 construct: expressed in transfected cells
T2 sequence (P18825 1-462): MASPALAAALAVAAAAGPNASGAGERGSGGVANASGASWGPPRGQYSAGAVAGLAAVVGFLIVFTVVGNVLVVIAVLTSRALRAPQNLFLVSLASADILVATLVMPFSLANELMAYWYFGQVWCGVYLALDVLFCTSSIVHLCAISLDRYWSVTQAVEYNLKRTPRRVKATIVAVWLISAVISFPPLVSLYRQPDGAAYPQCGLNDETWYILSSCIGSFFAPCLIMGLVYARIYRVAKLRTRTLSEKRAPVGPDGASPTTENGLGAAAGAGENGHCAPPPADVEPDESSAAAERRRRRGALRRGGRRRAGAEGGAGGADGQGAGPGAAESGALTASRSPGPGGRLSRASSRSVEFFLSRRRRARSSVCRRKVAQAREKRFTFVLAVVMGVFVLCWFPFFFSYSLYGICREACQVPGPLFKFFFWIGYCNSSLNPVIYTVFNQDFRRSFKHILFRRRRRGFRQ
Description: Radioligand binding experiment for α2C-adrenoceptor ([3H]-raulwolscine, CHO cell membranes). Conditions: [3H]raulwolscine 1 nM, membranes of CHO cells transfected with human α2C receptor; read-out: h-α2C pIC50 (converted).

The next assay deals with T3, 5HT-Transporter (Homo sapiens, UniProt P31645).
T3 construct: Human platelet membranes (Oceanix Biosciences Corporation, Hanover, Md., USA) were thawed; tissue Oceanix Biosciences Corporation; host or cells: human platelet membranes
Description: Binding experiment for the 5HT-transporter ([3H]paroxetine, human platelet membranes). Particulars: [3H]paroxetine 0.5 nM, read-out: h-5HTT pIC50 (converted).

Structures are written as SMILES. Bounds are passed on as bounds.

T3 sequence (P31645 whole entry): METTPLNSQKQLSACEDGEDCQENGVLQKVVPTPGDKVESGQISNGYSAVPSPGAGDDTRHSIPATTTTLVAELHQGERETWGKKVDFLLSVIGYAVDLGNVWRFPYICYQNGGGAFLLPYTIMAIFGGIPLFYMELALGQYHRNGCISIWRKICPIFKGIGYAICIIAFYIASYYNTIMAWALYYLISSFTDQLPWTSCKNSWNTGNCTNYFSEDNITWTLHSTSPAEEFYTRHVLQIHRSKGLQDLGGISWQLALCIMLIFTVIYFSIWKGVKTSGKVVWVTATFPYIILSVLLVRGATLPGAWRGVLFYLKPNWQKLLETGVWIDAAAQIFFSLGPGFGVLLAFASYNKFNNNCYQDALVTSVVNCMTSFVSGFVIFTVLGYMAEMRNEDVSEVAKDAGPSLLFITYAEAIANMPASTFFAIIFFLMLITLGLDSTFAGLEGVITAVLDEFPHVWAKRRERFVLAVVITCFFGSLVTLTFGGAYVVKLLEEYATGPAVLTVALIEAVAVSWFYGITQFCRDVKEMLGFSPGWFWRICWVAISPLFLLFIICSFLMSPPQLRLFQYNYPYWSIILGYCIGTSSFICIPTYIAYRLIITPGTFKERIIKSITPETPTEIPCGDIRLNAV

In the case of `O=C(Cn1ccnc(NC2CCN(CCOc3ccccc3)CC2)c1=O)Nc1ccc(F)cc1` [Compound 1-10], the IC50 on hα2A receptor is 158 nM; on hα2C receptor, 3.98 nM.

In the case of `O=c1c(NC2CCN(CCOc3ccccc3)CC2)nccn1Cc1ccc2ccccc2c1` [Compound 4-7], the values for the IC50 on 5HT-Transporter, at hα2A receptor and at hα2C receptor were 0.794 µM, 79.4 nM and 20 nM, respectively.

As for `O=c1[nH]ccnc1N1CCN(CCOc2ccc(F)cc2)CC1` [Compound 13-1], the IC50 on 5HT-Transporter is > 10 µM; at hα2A receptor, 501 nM; on hα2C receptor, 251 nM.

As for `CCCn1ccnc(N2CCN(CCOc3ccc(F)cc3)CC2)c1=O` [Compound 13-2], the IC50 at 5HT-Transporter is > 10 µM; on hα2A receptor, 631 nM; at hα2C receptor, 398 nM.

In the case of `CN(C)CCN(Cc1ccccc1)C(=O)Cn1ccnc(NC2CCN(CCOc3ccccc3)CC2)c1=O` [Compound 1-21], the IC50 on 5HT-Transporter was 1.58 µM; at hα2A receptor, 20 nM; at hα2C receptor it was 0.794 nM.

With `O=c1c(N2CCN(CCOc3ccc(F)cc3)CC2)nccn1CCCc1ccccc1` [Compound 11-2], the figures for the IC50 on 5HT-Transporter, at hα2A receptor and on hα2C receptor were 2 µM, 251 nM and 631 nM, respectively.

On to `CC(C)(C)C(=O)Cn1ccnc(N2CCN(CCOc3ccc(F)cc3)CC2)c1=O` [Compound 13-4], for which the IC50 at 5HT-Transporter was > 10 µM; at hα2A receptor it was 316 nM; at hα2C receptor it was 200 nM.

Turning to `O=c1[nH]ccnc1NC1CCN(CCOc2ccccc2)CC1` [Compound 5-1], the IC50 at 5HT-Transporter was > 10 µM; on hα2A receptor it was 398 nM; on hα2C receptor, 39.8 nM.

For `O=c1c(NC2CCN(CCOc3ccccc3)CC2)nccn1-c1ccc(N2CCC(N3CCCC3)CC2)cc1` [Compound 2-10], the IC50 is 3.16 µM at 5HT-Transporter, 126 nM at hα2A receptor and 7.94 nM at hα2C receptor.

Take `CN(Cc1ccccc1)C(=O)Cn1ccnc(NC2CCN(CCOc3ccccc3)CC2)c1=O` [Compound 1-13]: the IC50 at 5HT-Transporter is 5.01 µM; at hα2A receptor, 126 nM; at hα2C receptor, 3.98 nM.

For `O=c1c(NC2CCN(CCOc3ccccc3)CC2)nccn1-c1cccc(N2CCC(N3CCCC3)CC2)c1` [Compound 2-9], the results for the IC50 at 5HT-Transporter, at hα2A receptor and on hα2C receptor were 6.31 µM, 7.94 nM and 1 nM, respectively.

For `C=CCn1ccnc(N2CCN(CCOc3ccc(F)cc3)CC2)c1=O` [Compound 13-5], the IC50 on 5HT-Transporter was > 10 µM; at hα2A receptor, 501 nM; on hα2C receptor it was 501 nM.

With `O=c1c(N2CCN(CCOc3ccc(F)cc3)CC2)nccn1CC(c1ccccc1)c1ccccc1` [Compound 11-3], the figures for the IC50 on 5HT-Transporter, on hα2A receptor and on hα2C receptor were 7.94 µM, 251 nM and 316 nM, respectively.

As for `CC(C)(C)OC(=O)NCc1ccc(Cn2ccnc(N3CCN(CCOc4ccc(F)cc4)CC3)c2=O)cc1` [Compound 7-3], the IC50 on 5HT-Transporter was 2 µM; on hα2A receptor it was 398 nM; at hα2C receptor, 251 nM.

For the compound `CN(CCc1ccccc1)C(=O)Cn1ccnc(NC2CCN(CCOc3ccccc3)CC2)c1=O` [Compound 1-16], the IC50 on 5HT-Transporter was > 10 µM; on hα2A receptor it was 200 nM; on hα2C receptor, 7.94 nM.

`CN(C)C(=O)Cn1ccnc(N2CCN(CCOc3ccc(F)cc3)CC2)c1=O` [Compound 7-2]: the IC50 at 5HT-Transporter is > 10 µM; at hα2A receptor, 316 nM; at hα2C receptor, 501 nM.

Consider `O=C(Cn1ccnc(N2CCN(CCOc3ccc(F)cc3)CC2)c1=O)c1ccccc1` [Compound 11-5], for which the IC50 on 5HT-Transporter was 3.98 µM; at hα2A receptor, 158 nM; at hα2C receptor, 158 nM.

Turning to `O=c1c(NC2CCN(CCOc3ccccc3)CC2)nccn1CCCn1c(=O)[nH]c2ccccc21` [Compound 2-17], the values for the IC50 on 5HT-Transporter, on hα2A receptor and at hα2C receptor were 3.16 µM, 126 nM and 1.26 nM, respectively.

Turning to `O=C(Cn1ccnc(NC2CCN(CCOc3ccccc3)CC2)c1=O)N1CCC(Cc2ccccc2)CC1` [Compound 2-7], the IC50 was 1 µM on 5HT-Transporter, 158 nM at hα2A receptor and 5.01 nM on hα2C receptor.

On to `C#CCN(C)C(=O)Cn1ccnc(NC2CCN(CCOc3ccccc3)CC2)c1=O` [Compound 1-7], for which the IC50 on 5HT-Transporter was > 10 µM; on hα2A receptor, 251 nM; on hα2C receptor, 12.6 nM.

As for `O=C(Cn1ccnc(NC2CCN(CCOc3ccccc3)CC2)c1=O)N(CCN1CCCC1)Cc1ccc(F)cc1` [Compound 1-24], the IC50 at 5HT-Transporter is 5.01 µM; on hα2A receptor it was 15.8 nM; at hα2C receptor, 0.316 nM.

As to `O=C1c2ccccc2C(=O)N1CCCn1ccnc(N2CCN(CCOc3ccc(F)cc3)CC2)c1=O` [Compound 8-2], the IC50 was 0.631 µM on 5HT-Transporter, 100 nM at hα2A receptor and 39.8 nM on hα2C receptor.

In the case of `O=C1c2ccccc2C(=O)N1CCCn1ccnc(NC2CCN(CCOc3ccccc3)CC2)c1=O` [Compound 2-15], the IC50 at 5HT-Transporter is 1 µM; at hα2A receptor it was 200 nM; on hα2C receptor, 1.26 nM.

For the compound `O=c1c(N2CCN(CCOc3ccc(F)cc3)CC2)nccn1Cc1ccc(-c2ccccc2)cc1` [Compound 11-6], the IC50 was 1 µM on 5HT-Transporter, 316 nM on hα2A receptor and 251 nM on hα2C receptor.

`O=C1c2ccccc2C(=O)N1CC#CCn1ccnc(NC2CCN(CCOc3ccccc3)CC2)c1=O` [Compound 2-16]: the results for the IC50 on 5HT-Transporter, at hα2A receptor and on hα2C receptor were 1.26 µM, 501 nM and 7.94 nM, respectively.

Regarding `O=c1c(NC2CCN(CCOc3ccccc3)CC2)nccn1Cc1ccc2ccccc2n1` [Compound 6-3], the IC50 at 5HT-Transporter is 2.51 µM; on hα2A receptor, 200 nM; on hα2C receptor it was 7.94 nM.

As to `CCCCN(Cc1ccccc1)C(=O)Cn1ccnc(NC2CCN(CCOc3ccccc3)CC2)c1=O` [Compound 1-18], the IC50 is > 10 µM at 5HT-Transporter, 126 nM on hα2A receptor and 6.31 nM on hα2C receptor.

Regarding `O=c1c(N2CCN(CCOc3ccc(F)cc3)CC2)nccn1CC1CCCCC1` [Compound 13-3], the IC50 is 7.94 µM at 5HT-Transporter, 501 nM at hα2A receptor and 251 nM on hα2C receptor.

Consider `O=c1c(NC2CCN(CCOc3ccccc3)CC2)nccn1-c1ccc(CN2CCCCC2)cc1` [Compound 2-5], for which the IC50 on 5HT-Transporter is 3.98 µM; on hα2A receptor, 100 nM; on hα2C receptor, 1 nM.

Consider `O=c1c(NC2CCN(CCOc3ccccc3)CC2)nccn1Cc1cccc(Br)c1` [Compound 4-2], for which the IC50 on 5HT-Transporter was 1.58 µM; on hα2A receptor, 158 nM; on hα2C receptor it was 15.8 nM.

`O=c1c(N2CCN(CCOc3ccc(F)cc3)CC2)nccn1Cc1ccc(Cl)s1` [Compound 12-2]: the figures for the IC50 on 5HT-Transporter, on hα2A receptor and at hα2C receptor were 6.31 µM, 200 nM and 79.4 nM, respectively.

For the compound `CC(C)(C)C(=O)Cn1ccnc(NC2CCN(CCOc3ccccc3)CC2)c1=O` [Compound 5-6], the figures for the IC50 on hα2A receptor and at hα2C receptor were 200 nM and 10 nM, respectively.

Turning to `O=C(Cn1ccnc(NC2CCN(CCOc3ccccc3)CC2)c1=O)NCCc1ccccc1` [Compound 1-15], the IC50 is 251 nM on hα2A receptor and 3.16 nM at hα2C receptor.

For the compound `O=C(Cn1ccnc(NC2CCN(CCOc3ccccc3)CC2)c1=O)N(CCN1CCCC1)Cc1ccccc1` [Compound 1-23], the IC50 on hα2A receptor was 31.6 nM; at hα2C receptor, 0.501 nM.

Regarding `O=c1c(NC2CCN(CCOc3ccccc3)CC2)nccn1CCN1CCCCC1` [Compound 2-1], the values for the IC50 on hα2A receptor and at hα2C receptor were 100 nM and 2.51 nM, respectively.
